Results taken from patent US20040198716A1, “Cysteine protease inhimbitors” (priority 2001, published 2004).

Target: T1, human recombinant caspase-3 (Homo sapiens, UniProt P42574)
T1 construct: purchased Sigma
T1 sequence (P42574 29-175 limits assumed): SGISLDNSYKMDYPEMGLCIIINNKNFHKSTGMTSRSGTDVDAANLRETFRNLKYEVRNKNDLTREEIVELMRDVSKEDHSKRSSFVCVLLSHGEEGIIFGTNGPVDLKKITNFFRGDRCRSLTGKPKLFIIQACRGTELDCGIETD
T1 sequence (P42574 176-277 limits assumed): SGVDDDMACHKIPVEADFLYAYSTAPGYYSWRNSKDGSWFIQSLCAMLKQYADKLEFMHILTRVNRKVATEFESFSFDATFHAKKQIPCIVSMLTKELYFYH
Experiment: In vitro high throughput caspase-3 assay
Assay type: biochemical
Conditions: for Percent Activity: percentage of the positive control, 20-250 μM test compound, lower = better inhibition, negative = better than control caspase inhibitor; for Ki: calculated from IC50 according to Equation 1, read-out: Ki(app); for IC50: fixed substrate concentration of 55 μM, inhibitors 75 to 0.067 μM in duplicate
Description: Purified Human recombinant caspase-3, fluorescence labeled substrate (Acetyl-Asp-Glu-Val-Asp-7-amino-4-trifluoromethyl coumarin), and known inhibitor (Z-Asp-Glu-Val-Asp-fluoromethyl ketone) can be purchased from Sigma Chemical Co. (St. Louis, Mo.). The enzyme reactions are carried out at room temperature in 10 mM PIPES pH=7.4, 2 mM EDTA, 0.1% CHAPS, 5 mM DTT reaction buffer. Each well on the 96 well plate contains the above reaction buffer plus 55 μM fluorescence labeled substrate, 0.125 μg caspase-3, and 20-250 μM test compound. Positive and negative controls are present on each assay plate. A standard curve is generated using 7-amino-4-trifluoromethyl coumarin in the concentration range from 0.15 μM to 5.0 μM. The reactions are preferably read every 0.5 hours using a fluorescence microtiter plate reader set for 390 nm excitation and 538 nm emission for the first 4 hours after which the plates are left at room temperature overnight. One reading is taken the next morning as a final measurement.
To determine the caspase inhibitory activity of these compounds, the in vitro high throughput caspase-3 assay presented herein was utilized. Purified human recombinant caspase-3, fluorescence labeled substrate (Acetyl-Asp-Glu-Val-Asp-7-amino-4-trifluoromethyl coumarin), and known inhibitor (Z-Asp-Glu-Val-Asp-fluoromethyl ketone) were purchased from Sigma. The enzyme reactions were carried out at room temperature in 10 mM PIPES pH=7.4, 2 mM EDTA, 0.1% CHAPS, 5 mM DTT reaction buffer. Each well on the 96 well plate contained the above reaction buffer plus 55 μM fluorescence labeled substrate, 0.125 μg caspase-3, and 20-250 μM test compound. Positive and negative controls were present on each assay plate. A standard curve was generated using 7-amino-4-trifluoromethyl coumarin in the concentration range from 0.15 μM to 5.0 μM. The reactions were read every 0.5 hours using a fluorescence microtiter plate reader set for 390 nm excitation and 538 nm emission for the first 4 hours after which the plates were left at room temperature overnight. One reading was taken the next morning as a final measurement.
Ki determinations were carried out using the above assay system. […] Ki(app) was calculated according to Equation 1: [formula]
The concentration of inhibitors ranged from 75 to 0.067 μM with each inhibitor concentration assayed in duplicate. The Km for the substrate was determined from a standard Lineweaver-Burke plot.

Row | Compound | Percent Activity [%] | Ki [µM] | IC50 [µM]
1 | COc1ccc2noc3c2c1C(=O)c1ccccc1-3 [cpi0156.0054] | −3.264 |  | 
2 | O=C(O)Cc1cc(O)c2c(c1O)C(=O)c1ccccc1C2=O [cpi0136.0011] | 2.42 | 1.13 | 7.13
3 | O=C(O)C1Cc2c([nH]c3ccccc23)C(c2ccncc2)N1 (stereo not drawn) [cpi0190] |  | 0.0054 | 0.03
4 | O=C1C=CC(=O)c2c(O)cccc21 [cpi0136.0002] | −6.091 | 0.0026 | 0.02
5 | CC(=O)OCCNc1cc(Br)c2noc3c2c1C(=O)c1ccccc1-3 [cpi0156.0034] | −0.6303 |  | 
6 | NC(=O)NN=C1C=CC(=O)c2c(O)cccc21 [cpi0136.0004] | −3.391 | 0.0682 | 0.43
7 | COc1ccc2c(c1OC)C(=O)OC2CC(=O)c1ccc(O)cc1O (stereo not drawn) [cpi0156.D1] | 24.72 |  | 
8 | COc1c(C)c([N+](=O)[O-])c(O)c2c1C(=O)c1ccccc1C2=O [cpi0136.0024] | 51.3817 | 3.05 | 19.2
9 | CC(C)=CCC(O)C1CC(=O)c2c(O)ccc(O)c2C1=O (mixture of isomers) [cpi0138.0001] | 22.68 |  | 
10 | Cc1cccc(Oc2ccc3noc4c3c2C(=O)c2ccccc2-4)c1 [cpi0156.0055] | −1.448 |  | 
11 | O=C1c2ccccc2C(=O)c2c1cc(S(=O)(=O)O)c(O)c2O [cpi0136.0005] | −2.336 | 1.41 | 8.9
12 | CC(=O)N(Cc1ccccc1)C1=C(Cl)C(=O)c2ccccc2C1=O [cpi0156.0046] | −1.772 |  | 
13 | O=C1c2ccccc2C(=O)c2c(O)c(O)cc(O)c21 [cpi0136.0006] | −2.295 | 0.762 | 4.8
14 | O=C1c2ccccc2-c2onc3ccc(Cl)c1c23 [cpi0156.0056] | 1.882 |  | 
15 | O=C(NC1CCCCC1)c1ccc2c3c(onc13)-c1ccccc1C2=O [cpi0156.0045] | 3.338 |  | 
16 | CN(C)c1cc(Nc2ccccc2)c2c3c(onc13)-c1ccccc1C2=O [cpi0156.0052] | 31.97 |  | 
17 | N#CC1=C(N)NC(SCc2ccccc2)=C(C#N)C12CCCC2 [cpi0157.F10] | 19.48 | 14.5 | 91
18 | Cc1ccc2[nH]c3c(cc(O)c4c(=O)c5ccccc5c(=O)c43)oc2c1 [cpi0136.0017] | 24.8 | 16.7 | 106
19 | O=C(O)c1c(O)c2c(c(O)c1Cl)C(=O)c1ccccc1C2=O [cpi0136.0001] | −8.938 | 0.807 | 5.09
20 | COc1cc(NC2OC(CO)C(O)C(O)C2O)ccc1C (stereo not drawn) [cpi0159.C3] | 33.47 |  | 
21 | O=C1C=CC(=NNc2cc([N+](=O)[O-])cc([N+](=O)[O-])c2)c2cccc(O)c21 [cpi0136.0008] | −0.715 | 0.557 | 3.51
22 | O=C1c2ccccc2-c2onc3c(N4CCN(c5ccccc5)CC4)ccc1c23 [cpi0156.0047] | 28.63 |  | 
23 | O=C1C(Br)=C(Br)C(=O)c2c(O)c(Br)c(Br)c(O)c21 [cpi0140] |  | 0.503 | 3.17
24 | O=C1c2ccccc2C(=O)c2c(O)ccc(O)c21 [cpi0130] | 45.72 |  | 
25 | O=C1C=CC(=NNc2ccc([N+](=O)[O-])cc2[N+](=O)[O-])c2cccc(O)c21 [cpi0136.0020] | 36.98 | 54.2 | 342
26 | CC(C)=CCC(O)C1CC(=O)c2c(O)ccc(O)c2C1=O (mixture of isomers) [cpi0138.0002] | 30.37 |  | 
27 | O=C1c2ccccc2-c2onc3c(N4CCCCC4)cc(Nc4ccccc4)c1c23 [cpi0156.0048] | 18.82 |  | 
28 | O=C1C(c2ccc(O)c(O)c2)=C(O)C(=O)c2c(O)cc(O)cc21 [cpi0136.0010] | 1.452 | 9.76 | 61.5
